# According to patent US10889849B2, “Oxidized glutathione assay” (PROMEGA CORPORATION, priority 2010, dated 2021):
# What was measured:
# Type in all cases: cell-based
# [1] = test system: HeLa cells; assay: Determination of GSH:GSSG ratio in HeLa cells; conditions: HeLa cells, 5,000 cells/well, 60 minutes with 40 uM menadione
# Procedure: (§1) The assay is optimized for low cell densities such as HeLa or HepG2 cells at 5,000-10,000 cells per well and hepatocytes at 10,000 to 20,000 cells/well. HeLa or HepG2 cells were plated on Corning Costar 3903 96-well flat bottom tissue culture-treated white with clear bottom. Hepatocytes were plated on BD BioCoat™ 4650 96-well Collagen 1 Cellware. Hepatocytes were cultured with vendor recommended hepatocyte media. If clear walled tissue culture plates are used, a transfer step must be performed after Luciferase Detection Reagent (LDR) addition to get the reactions into luminometer plates. Plate cells and incubate overnight at 37° C. in a 5% CO2 culture incubator.
# (§2) Menadione is a Reactive Oxygen Species (ROS) inducer and is used as a positive control. 40 μM Menadione was prepared in Krebs-Ringer, Krebs-Henseleit, or Hank's Balanced Salts (HBSS) buffers. Other buffers […] to dilute the Menadione as components of cell culture media, such as serum, phenol red, and cysteine, can interfere with the assay chemistry. No treatment controls (vehicle only) were performed by exchanging the culture media on the cells with buffer+ vehicle at the same time as treating the cells with Menadione.
# (§3) The below reagent was prepared for measurement of GSSG. […]
# (§4) Compound treatment was removed and discarded from the adherent cells. […] Again, the plated was shook briefly, incubated at room temperature for 10 min, and luminescence read.
# (§5) The […] is calculated by dividing the moles of GSH in a sample by the moles of GSSG in a sample. Because each mole of GSSG produces two moles of GSH, and the assay produces a signal from all of the GSH produced by reduction of GSSG, a 2-fold adjustment is required in the number of moles of GSH quantified by the GSH standard curve.
# (§6) For background, the luminescence (RLUs) generated from no cell control or 0 μM GSH from the standard curve was used. […] The GSH/GSSG ratio for untreated cells was calculated using the formula: […]
# i. […] GSSG and GSH were detected by the method described in A. The ratio GSH/GSSG was calculated as described in B.
# [2] = test system: Rat hepatocytes; assay: Determination of GSH:GSSG ratio in rat hepatocytes; conditions: Rat hepatocytes, 20,000 cells/well, 60 minutes with 40 uM menadione
# Procedure: as §1
# Menadione is a Reactive Oxygen Species (ROS) inducer and is used as a positive control. 40 μM Menadione was prepared in Krebs-Ringer, Krebs-Henseleit, or Hank's Balanced Salts (HBSS) buffers. Other buffers […] to dilute the Menadione as components of cell culture media, such as serum, phenol red, and cysteine, can interfere with the assay chemistry. No treatment controls (vehicle only) were performed by exchanging the culture media on the cells with buffer+ vehicle at the same time as treating the cells with Menadione. […]
# as §4, §5, §6
# ii: Rat hepatocytes, 20,000 cells/well, were treated as in i. GSSG and GSH were detected by the method described in A. The ratio GSH/GSSG was calculated as described in B.
# [3] = test system: HepG2 cells; assay: Determination of GSH:GSSG ratio in HepG2 cells; conditions: HepG2 cells, 5,000 cells/well, 60 minutes with 40 uM menadione
# Procedure: as §1, §2, §3, §4, §5, §6
# iii. […] GSSG and GSH were detected by the method described in A. The ratio GSH/GSSG was calculated as described in B.
# [4] = test system: Jurkat cells; assay: Determination of GSH:GSSG ratio in Jurkat cells; conditions: 60 minutes with 40 uM menadione
# Procedure: Suspension cells, such as Jurkat or […], are washed in Krebs-Ringer, Krebs-Henseleit, or Hank's Balanced Salts (HBSS) buffers to remove traces of medium and serum. Cells are then counted and diluted in one of the above buffers at the desired density. For Jurkat cells, 10,000 to 20,000 cells/well were used. 20 μl of cell suspension (at the desired density) were then added to wells of a 96-well plate. Enough wells with cells were plated for test compound treatment, vehicle-only treatment and no treatment controls. […]
# as §4, §5, §6
# iv. […] GSSG and GSH were detected by the method described in A. The ratio GSH/GSSG was calculated as described in B
# [5] = test system: A549 cells; assay: Detection of reactive oxygen effects by sampling media (GSSG and GSH in cells and media); conditions: 1 hour
# Procedure: A549 cells were plated at a density of 5,000 cells per well in a 96-well tissue culture plate in 100 ul of DMEM with 10% fetal calf serum and incubated for 48 hours at 37° C. with 10% CO2. After incubation, the media was removed, discarded, and replaced with HBSS buffer with or without 40 uM menadione. The plate was then incubated for 1 hour at 37° C. with 10% CO2.
# After the 1 hour treatment, the HBSS buffer from the cells was transferred to a fresh, 96-well plate. The cells were then given 100 ul of fresh HBSS buffer and a concentrated solution of PLB with or without NEM. The following conditions (in triplicate) resulted from these manipulations: • 1. Cell GSH and GSSG were measured from the lysate of cells where the vehicle or menadione treatment with HBSS buffer was removed prior to lysis. • 2. Media GSH and GSSG were measure from the HBSS buffer transferred from the cells. • 3. Total GSH and total GSSG were measured from the lysate of cells treated with HBSS buffer where the HBSS buffer was not removed prior to addition of PLB.
# For measurement of GSSG, samples were given a mixture containing GST-22, 25 mM NEM, and 1× Passive Lysis Buffer. For measurement of GSH, samples were given a mixture containing GST-22 and 1× Passive Lysis Buffer. Samples were incubated for 5 minutes at room temperature, and 25 μl LDR with 100 mM DTT and GST added. Samples were then incubated for 30 minutes at room temperature, and 150 μl LDR added. Luminescence was detected after 15 minute room temperature incubation.
# It should be noted that one could expect the total glutathione species from the media and the cells to be about equal to the total well measurement. This calculation is shown in the third row of Table 7. The ratio of GSH to GSSG was also determined (FIG. 10).
# [6] = test system: A549 cells; assay: Measurements of cell lysis (LDH release and ATP levels); conditions: menadione treatment, data not shown
# Excerpt: From the data in Table 7 and FIG. 9, it is clear that measurement of GSSG in the media alone would have indicated some effect of the menadione treatment on the cells.
# [7] = 40 uM menadione in HBSS, HBSS buffer transferred from the cells
# [8] = 40 uM menadione in HBSS, lysate of cells, buffer removed prior to lysis
# [9] = 40 uM menadione, HBSS buffer not removed prior to addition of PLB
# [10] = 40 uM menadione, calculated sum of cell and media
smiles,measurement,setting,value
CC1=CC(=O)c2ccccc2C1=O [Menadione],"Ratio GSH/GSSG, treated",[1],2.2
same,"Treated Net RLU, GSH",[1],12364719 RLU
same,"Treated Net RLU, GSSG",[1],5894364 RLU
same,"Ratio GSH/GSSG, treated",[2],1.1
same,"Treated Net RLU, GSH",[2],10722488 RLU
same,"Treated Net RLU, GSSG",[2],6900404 RLU
same,"Ratio GSH/GSSG, treated",[3],1.5
same,"Treated Net RLU, GSH",[3],4162074 RLU
same,"Treated Net RLU, GSSG",[3],2364652 RLU
same,Ratio-Treated (GSH/GSSG),"[4]; Jurkat cells, 10,000 cells/well",3.8
same,Ratio-Treated (GSH/GSSG),"[4]; Jurkat cells, 20,000 cells/well",3.6
same,"GSH, averaged RLU, Media",[5]; [7],"3,491,077 RLU"
same,"GSSG, averaged RLU, Media",[5]; [7],"2,494,444 RLU"
same,"GSH, averaged RLU, Cell",[5]; [8],"10,613,488 RLU"
same,"GSSG, averaged RLU, Cell",[5]; [8],"464,099 RLU"
same,"GSH, averaged RLU, Total Well",[5]; [9],"12,903,498 RLU"
same,"GSSG, averaged RLU, Total Well",[5]; [9],"3,189,598 RLU"
same,"GSH, RLU, Total (Cell + Media)",[5]; [10],"14,104,565 RLU"
same,"GSSG, RLU, Total (Cell + Media)",[5]; [10],"2,958,543 RLU"
same,Cell lysis (LDH release and ATP levels),[6],did not suggest that any lysis had taken place
